Data published in paper PMC9395488, “First-in-human study of IM156, a novel potent biguanide oxidative phosphorylation (OXPHOS) inhibitor, in patients with advanced solid tumors” (Investigational New Drugs, 2022).
“Also recorded” adds a separate entry of the source. Like-named read-outs stand apart in the source and are kept apart here.

Experiments:
[1] = system: GC lines including MKN-74; design: method as in ImmunoMet, 2018; conditions: Eleven GC lines including MKN-74; ref ImmunoMet, 2018; cited from earlier work
Glioblastoma cells = system: Glioblastoma cells; design: method as in ImmunoMet, 2018; conditions: 15 µM IM156, 500 µM temozolomide, ref ImmunoMet, 2018; cited from earlier work
[2] = Plasma pharmacokinetics of IM156 in patients
Method: PK samples were also obtained on Cycle 1 Day 15 immediately prior to dosing and 2 h after dosing.
③ Method and schedule for administration:
IM156 will be administered in a fasted state (at least 2 hours after
and 1 hour before eating and drinking except water) except at
the single dose stage (described below).
In the single dose stage, IM156 will be administered with a high-
fast of at least 10 hours, subjects should eat a high-fat meal in
20 minutes starting 30 minutes prior to administration of IM156
with 240 mL of water. No food will be eaten for at least 4 hours
after the administration of IM156. Water is allowed as desired
except for one hour before and after the administration of IM156.
Phase 1b: advanced solid tumor or lymphoma
IM156 will be administered at the RP2D and schedule determined during
Phase 1a. The population(s) and dose and schedule of IM156 will be
defined in a protocol amendment.
Methodology This study is a Phase 1 clinical study to determine the MTD and RP2D of
IM156 as a single agent and to explore its safety, tolerability, PK
characteristics, exploratory markers, and preliminary efficacy.
The Phase 1 clinical study consists of two parts, Phase 1a and Phase 1b.
The Phase 1a is conducted to determine the MTD of IM156 as a single
agent. In addition, the safety, tolerability, preliminary efficacy, PK
characteristics, and exploratory markers of IM156 are evaluated in
patients with advanced solid tumors or lymphoma who have failed in the
standard therapies. Approximately 8 cohorts are planned in Phase 1a; the
number of cohorts and the dose and schedule of IM156 to be
administered at each dose levels will be determined by Safety Committee.
The Phase 1b is conducted to confirm the safety and tolerability, to
explore the preliminary efficacy, and to evaluate the exploratory markers
at the RP2D of IM156 in patients with advanced solid tumor or lymphoma.
Pharmacokinetic Evaluation
Pharmacokinetic evaluation on IM156 will be carried out at each dose level in all the patients
enrolled in the Phase 1a and Phase 1b study. Pharmacokinetic evaluation will be performed on
Day 1 and 15 (Day 15 is only for the Phase 1a study) of the first cycle (Cycle 1), and Day 1 of the
second cycle (Cycle 2). Day 1 Cycle 2 will be Day 29. On Day 1 of Cycles 1 and 2, patients may
be hospitalized in the ward where 24-hour monitoring is possible, and blood and urine will be
collected before and after IM156 adminstration for PK evaluation. The drug concentration will be
evaluated whenever analyses of patient samples are feasible during the clinical study. In PK
evaluation, area under the concentration-time curve (AUC) over the time interval from 0
extrapolated to infinity (AUCinf), AUC up to the last measurable concentration (AUC0–last),
maximum plasma drug concentration (Cmax), minimum plasma drug concentration (Cmin), time
taken to reach the maximum concentration (Tmax), terminal phase half life (T1/2), apparent total
clearance of the drug from plasma after oral administration (CL/F), accumulation ratio at steady
state, cumurative amount of unchanged drug excreted into the urine (Ae), renal clearance (CLr),
and so on will be determined and other PK parameters can be added, if necessary.

rodent bone marrow = conditions: ref ImmunoMet, 2018; cited from earlier work
[3] = SD rats, 50, 100/75, or 150/100 mg/kg QOD oral gavage; ref ImmunoMet, 2018; cited from earlier work
OXPHOS [4] = assay: OXPHOS inhibition in whole blood ex vivo; format: cell-based; conditions: at ~ 6 μM IM156
Method: The maximum plasma exposure achieved in this study was ~ 6 μM in patients who received IM156 at daily doses of 800 mg. […] As such, measurements of target inhibition were not informative using PBMCs-based assays.

[5] = system: miR-17~92 overexpression Eµ-MYC lymphoma; design: method as in ImmunoMet, 2018; conditions: nude mice, IM156 in drinking water 0.8 mg/mL, vs control line or regular drinking water; ref ImmunoMet, 2018; cited from earlier work
Hs746T GC xenograft = system: Hs746T GC xenograft; design: method as in ImmunoMet, 2018; conditions: Hs746T GC xenograft in mice, each compound alone; IM156 10 or 30 mg/kg, Irinotecan 50 or 75 mg/kg; ref ImmunoMet, 2018; cited from earlier work
[6] = presence and absence of activated S9; ref ImmunoMet, 2018; cited from earlier work
OXPHOS [7] = system: OXPHOS; design: method as in ImmunoMet, 2018; conditions: at the highest concentrations; ref ImmunoMet, 2018; cited from earlier work
protein complex 1 = system: protein complex 1; design: method as in ImmunoMet, 2018; conditions: study protocol background; ref ImmunoMet, 2018; cited from earlier work
SD rats = conditions: 2018, cited from earlier work
glioblastoma (GSC11) = system: glioblastoma (GSC11); design: method as in ImmunoMet, 2018; conditions: glioblastoma animal model, control group 47 days; ref ImmunoMet, 2018; cited from earlier work
A549 = system: A549; design: method as in ImmunoMet, 2018; conditions: in A549; ref ImmunoMet, 2018; read-out: OXPHOS inhibition IC50; cited from earlier work
tumor cells = system: tumor cells; design: method as in Immunomet – Data on File; conditions: at equal concentrations, ref Immunomet – Data on File, cited from earlier work
[8] = beagle dogs, ref ImmunoMet, 2018, cited from earlier work
[9] = major metabolic organs such as lung, liver, kidney; cited from earlier work
[10] = plasma, Cycle 1 Day 1, 100 mg oral, N = 3
[11] = plasma, Cycle 1 Day 1, 200 mg oral, N = 3
[12] = plasma, Cycle 1 Day 1, 400 mg oral, N = 3
[13] = plasma, Cycle 1 Day 1, 800 mg oral (both regimens combined), N = 6
[14] = plasma, Cycle 1 Day 1, 1200 mg oral (both regimens combined), N = 7
[15] = plasma, Day 27, cohort 1, 100 mg QOD, N = 2
[16] = plasma, Day 27, cohort 2, 200 mg QOD, N = 3
[17] = plasma, Day 27, cohort 3, 400 mg QOD, N = 3
[18] = plasma, Day 27, cohort 4, 800 mg QOD, N = 3
[19] = plasma, Day 27, cohort 5, 1200 mg QOD, N = 3
[20] = plasma, Day 27, cohort 6, 800 mg QD, N = 3
[21] = plasma, Day 27, cohort 7, 1200 mg QD, N = 2
[22] = plasma, Fed 1 (single dose with high-fat meal), 1200 mg oral, N = 3
[23] = 150 mg/kg/dose QOD oral, between Days 8 and 10, ref ImmunoMet
[24] = oral QOD over 27 days (14 doses), ref ImmunoMet

NC(=Nc1ccc(OC(F)(F)F)cc1)N=C(N)N1CCCC1 [IM156]
sensitivity of GC lines to single agent [1]: significant sensitivity
neurosphere size (Glioblastoma cells): decreased
accumulation of plasma exposure at steady-state ([2]; 800 mg QD, Day 27 vs Day 1): modest accumulation
maximum plasma exposure achieved ([2]; daily doses of 800 mg): ~ 6 μM
dose proportionality of plasma exposure (AUC0-24, Cmax) ([2]; doses ≥ 200 mg): increased dose proportionally; also recorded: increased in a dose proportional manner; also recorded: dose proportionality
AUC0-24 [2, 10]: 482 ± 342 ng·h/mL
Cmax [2, 10]: 38.7 ± 31.1 ng/mL
Tmax [2, 10]: 6.67 ± 2.31 h
AUC0-24 [2, 11]: 2980 ± 251 ng·h/mL
Cmax [2, 11]: 189 ± 41.0 ng/mL
Tmax [2, 11]: 4.67 ± 3.06 h
AUC0-24 [2, 12]: 4380 ± 3010 ng·h/mL
Cmax [2, 12]: 362 ± 131 ng/mL
Tmax [2, 12]: 3.33 ± 1.15 h
AUC0-24 [2, 13]: 7520 ± 3820 ng·h/mL
Cmax [2, 13]: 829 ± 260 ng/mL
Tmax [2, 13]: 2.25 ± 1.47 h
AUC0-24 [2, 14]: 14,100 ± 6970 h*ng/mL
Cmax [2, 14]: 1100 ± 616 ng/mL
Tmax [2, 14]: 5.00 ± 3.00 h
Plasma AUC0-24 ([2]; plasma, Day 1, cohort 4 only, 800 mg QOD): 7250 ± 3960 ng·h/mL
Plasma AUC0-24 ([2]; plasma, Day 1, cohort 5 only, 1200 mg QOD): 10600 ± 4820 ng·h/mL
Plasma AUC0-24 ([2]; plasma, Day 1, cohort 6 only, 800 mg QD): 7790 ± 4530 ng·h/mL
Plasma AUC0-24 ([2]; plasma, Day 1, cohort 7 only, 1200 mg QD): 16800 ± 7720 ng·h/mL
mean Tmax values, range over doses ([2]; plasma, Day 27): 1.2 to 4.0 h
AUC0-24 [2, 15]: 1070 ± 330 ng·h/mL
AUC0-48 [2, 15]: 1400 ± 383 ng·h/mL
AUCINF [2, 15]: 1620 ± 473 ng·h/mL
CL/F [2, 15]: 64.5 ± 18.8 L/h
Cmax [2, 15]: 109 ± 54.8 ng/mL
Tmax [2, 15]: 2.50 ± 2.12 h
Vz/F [2, 15]: 1580 ± 291 L
t1/2 [2, 15]: 17.3 ± 1.91 h
AUC0-24 [2, 16]: 4200 ± 1140 ng·h/mL
AUC0-48 [2, 16]: 6010 ± 1810 ng·h/mL
AUCINF [2, 16]: 6180 ± 2220 ng·h/mL
CL/F [2, 16]: 34.6 ± 12.4 L/h
Cmax [2, 16]: 272 ± 43.8 ng/mL
Tmax [2, 16]: 4.00 ± 0.00 h
Vz/F [2, 16]: 837 ± 266 L
t1/2 [2, 16]: 16.9 ± 0.752 h
AUC0-24 [2, 17]: 7630 ± 5410 ng·h/mL
AUC0-48 [2, 17]: 10,900 ± 8770 h*ng/mL
CL/F [2, 17]: 67.8 ± 28.3 L/h
Cmax [2, 17]: 530 ± 324 ng/mL
Tmax [2, 17]: 4.00 ± 0.00 h
Vz/F [2, 17]: 1160 ± 256 L
t1/2 [2, 17]: 12.4 ± 2.56 h
AUC0-24 [2, 18]: 12,900 ± 9470 h*ng/mL
AUC0-48 [2, 18]: 18,200 ± 14,700 h*ng/mL
AUCINF [2, 18]: 11,200 ± 5740 h*ng/mL
CL/F [2, 18]: 82.4 ± 42.3 L/h
Cmax [2, 18]: 949 ± 408 ng/mL
Tmax [2, 18]: 1.17 ± 0.764 h
Vz/F [2, 18]: 1650 ± 413 L
t1/2 [2, 18]: 14.9 ± 4.20 h
AUC0-24 [2, 19]: 21,800 ± 3680 h*ng/mL
AUC0-48 [2, 19]: 29,800 ± 4700 h*ng/mL
AUCINF [2, 19]: 33,100 ± 6120 h*ng/mL
CL/F [2, 19]: 36.9 ± 6.83 L/h
Cmax [2, 19]: 1580 ± 75.3 ng/mL
Tmax [2, 19]: 3.33 ± 1.15 h
Vz/F [2, 19]: 863 ± 312 L
t1/2 [2, 19]: 15.9 ± 2.90 h
AUC0-24 [2, 20]: 33,600 ± 9780 h*ng/mL
Cmax [2, 20]: 1870 ± 485 ng/mL
Tmax [2, 20]: 4.00 ± 0.00 h
AUC0-24 [2, 21]: 36,300 ± 7550 h*ng/mL
Cmax [2, 21]: 1980 ± 94.8 ng/mL
Tmax [2, 21]: 4.00 ± 0.00 h
AUC0-24 [2, 22]: 17,600 ± 12,800 h*ng/mL
Cmax [2, 22]: 1220 ± 910 ng/mL
Tmax [2, 22]: 6.83 ± 5.84 h
mean plasma half-life (t1/2) values, range ([2]; plasma, post dose administration): 12—17 h
genotoxicity in in vivo micronucleus test (rodent bone marrow): not genotoxic
dose proportionality of exposure based on AUClast [3]: more than dose-proportional
dose proportionality of exposure based on Cmax [3]: less than dose-proportional
inhibition of OXPHOS in whole blood ex vivo (OXPHOS [4]): very little inhibition
extension of overall animal survival [5]: approximately 50%
reduction of tumor volume (Hs746T GC xenograft): ~ 70%
genotoxicity in two in vitro assays [6]: not genotoxic
time to show OXPHOS inhibition (OXPHOS [7]): ≤ 20 min
potency as protein complex 1 inhibitor relative to metformin (protein complex 1): ~ 100 times
tolerability (SD rats; 50 mg/kg/dose QOD oral gavage, 27 days, ref ImmunoMet): well tolerated
preterminal euthanasia, females (SD rats; [23]): 3/15
preterminal euthanasia, males (SD rats; [23]): 2/15
no-observed-adverse-effect level (NOAEL) (SD rats; [24]): 50 mg/kg/dose
severely toxic dose in 10% of the rats (STD10) (SD rats; [24]): 100 mg/kg/dose
median survival time (glioblastoma (GSC11)): 82 days
IC50 (A549): 9 µM
reduction of cellular ATP production versus phenformin (tumor cells; without increase in ECAR): more potent
decrease of oxygen consumption rate (OCR) of tumor cells compared to phenformin and metformin (tumor cells): more potent
accumulation over 27 days ([8]; 20 mg/kg/dose QOD): no apparent accumulation
accumulation over 27 days ([8]; 40 and 80 mg/kg/dose QOD): accumulation
tissue concentrations compared to plasma [9]: 30–80 fold
